Test results from ChEMBL document CHEMBL1201862, “PubChem BioAssay data set” (2004).
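Cells were grown in 96-well plates and exposed to each compound for 48 hours at five concentrations; endpoints were interpolated linearly between bracketing concentrations, or set to the highest concentration if not reached. GI50 is the concentration that inhibits growth by half.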 The source made the active and inactive calls. Cut-off read from the data, not from the text of the source: active = GI50 up to about 1.1 µM and inactive = higher.

What was measured:
Assay in all cases: DTP human tumour cell line panel, 48 h
HOP-92 = tested on: HOP-92
OVCAR-3 = tested on: OVCAR-3
NCI-H460 = tested on: NCI-H460
HOP-62 = tested on: HOP-62
HCC 2998 = tested on: HCC 2998
SF-268 = tested on: SF-268
CAKI-1 = tested on: CAKI-1
U-251 = tested on: U-251
COLO 205 = tested on: COLO 205
UO-31 = tested on: UO-31
SF-539 = tested on: SF-539
OVCAR-4 = tested on: OVCAR-4
UACC-62 = tested on: UACC-62
Malme-3M = tested on: Malme-3M
CCRF-CEM = tested on: CCRF-CEM
RPMI-8226 = tested on: RPMI-8226

Measured: GI50

O=C1/C(=C/c2ccccc2)CCCC/C1=C\c1ccccc1
inactive: HOP-92 40.1 µM | OVCAR-3 > 100 µM | NCI-H460 51.3 µM | HOP-62 > 100 µM | HCC 2998 48.5 µM | SF-268 88.9 µM | CAKI-1 > 100 µM | U-251 62.2 µM | COLO 205 39.2 µM | UO-31 55 µM | SF-539 > 100 µM | OVCAR-4 75 µM | UACC-62 > 100 µM | Malme-3M 36.2 µM

c1cc2c(cc1C1OCC3C(c4ccc5c(c4)OCO5)OCC13)OCO2 (stereo not given)
inactive: HOP-92 69.7 µM | OVCAR-3 84.1 µM | NCI-H460 75.3 µM | CCRF-CEM 32.3 µM | HOP-62 > 100 µM | HCC 2998 71.1 µM | SF-268 > 100 µM | U-251 83 µM | COLO 205 67.8 µM | UO-31 57 µM | SF-539 > 100 µM | OVCAR-4 > 100 µM | UACC-62 50 µM | Malme-3M 61.9 µM

CCOC(=O)C(=CNC(Cc1c[nH]c2ccccc12)C(=O)OC)C(=O)OCC (stereo not given)
inactive: HOP-92 16.6 µM | OVCAR-3 > 100 µM | NCI-H460 44.7 µM | CCRF-CEM > 100 µM | RPMI-8226 > 100 µM | SF-268 > 100 µM | CAKI-1 > 100 µM | U-251 > 100 µM | COLO 205 > 100 µM | UO-31 74.6 µM | SF-539 > 100 µM | UACC-62 71.1 µM | Malme-3M > 100 µM
active: HOP-62 < 0.01 µM

O=C1c2ccccc2C(=O)c2sc(Nc3ccc(Cl)cc3)nc21
inactive: OVCAR-3 1.51 µM | NCI-H460 2.82 µM | CCRF-CEM 1.32 µM | HOP-62 4.68 µM | RPMI-8226 1.38 µM | HCC 2998 4.32 µM | SF-268 2.4 µM | CAKI-1 1.99 µM | U-251 1.62 µM | COLO 205 7.16 µM | UO-31 3.35 µM | SF-539 4.55 µM | OVCAR-4 1.65 µM | UACC-62 1.85 µM | Malme-3M 1.96 µM

C#CCOc1c(C(=O)OCC)c(=O)n(C)c2ccccc12
active: HOP-62 < 0.01 µM
inactive: HOP-92 70 µM | OVCAR-3 > 100 µM | NCI-H460 > 100 µM | CCRF-CEM > 100 µM | RPMI-8226 > 100 µM | SF-268 > 100 µM | CAKI-1 > 100 µM | U-251 > 100 µM | COLO 205 > 100 µM | UO-31 > 100 µM | SF-539 > 100 µM | UACC-62 > 100 µM | Malme-3M > 100 µM

COC(=O)CC(c1ccccc1)C1(c2ccccc2)SCCS1 (stereo not given)
inactive: HOP-92 12.6 µM | OVCAR-3 55.1 µM | NCI-H460 261 µM | CCRF-CEM 105 µM | HOP-62 266 µM | RPMI-8226 21.2 µM | HCC 2998 > 290 µM | SF-268 150 µM | CAKI-1 262 µM | U-251 > 290 µM | COLO 205 > 290 µM | SF-539 > 290 µM | UACC-62 142 µM | Malme-3M > 290 µM

COC(=O)c1nn(C(=N)c2ccc(Cl)cc2)c2c1CCC2
inactive: HOP-92 > 100 µM | NCI-H460 > 100 µM | CCRF-CEM > 100 µM | HOP-62 > 100 µM | RPMI-8226 > 100 µM | HCC 2998 > 100 µM | SF-268 > 100 µM | CAKI-1 > 100 µM | U-251 > 100 µM | COLO 205 > 100 µM | UO-31 > 100 µM | SF-539 > 100 µM | OVCAR-4 > 100 µM | UACC-62 > 100 µM | Malme-3M > 100 µM

CCCCN(CCCC)C(=O)/C(CC(=O)c1cccc2ccccc12)=N\NC(=O)c1cc2ccccc2cc1O
inactive: HOP-92 19.2 µM | OVCAR-3 14.4 µM | NCI-H460 18.4 µM | CCRF-CEM 3.94 µM | HOP-62 20 µM | RPMI-8226 3.52 µM | HCC 2998 16.3 µM | SF-268 11.2 µM | U-251 19.3 µM | COLO 205 23 µM | UO-31 10.1 µM | OVCAR-4 25.6 µM | UACC-62 6.85 µM | Malme-3M 16.9 µM

COC1C=COC2(C)Oc3c(C)c(O)c4c(O)c(c(/C=N/N5CCN(N)CC5)c(O)c4c3C2=O)NC(=O)C(C)=CC=CC(C)C(O)C(C)C(O)C(C)C(OC(C)=O)C1C (stereo not given)
inactive: HOP-92 65.6 µM | CCRF-CEM 20.1 µM | HOP-62 > 100 µM | RPMI-8226 29.7 µM | HCC 2998 > 100 µM | SF-268 62.5 µM | CAKI-1 > 100 µM | U-251 > 100 µM | COLO 205 37.8 µM | UO-31 41.7 µM | SF-539 > 100 µM | OVCAR-4 70.5 µM | UACC-62 > 100 µM | Malme-3M > 100 µM

O=C1CCCCCCCCCCC(=O)C2CCOCCOCCOCCC1Cc1cccc(n1)C2
inactive: OVCAR-3 40.6 µM | NCI-H460 99.1 µM | CCRF-CEM 59.2 µM | HOP-62 > 100 µM | RPMI-8226 39.1 µM | HCC 2998 46.1 µM | SF-268 94.4 µM | CAKI-1 41.2 µM | U-251 > 100 µM | COLO 205 93.3 µM | UO-31 42.1 µM | SF-539 > 100 µM | OVCAR-4 51.5 µM | UACC-62 > 100 µM | Malme-3M > 100 µM

O=C1C(=O)N(c2cc(Cl)ccc2Cl)C(=O)C(=O)C1c1nc2ccccc2s1
inactive: HOP-92 24.4 µM | OVCAR-3 > 100 µM | NCI-H460 > 100 µM | CCRF-CEM 62.4 µM | HOP-62 > 100 µM | RPMI-8226 > 100 µM | SF-268 86.5 µM | CAKI-1 > 100 µM | U-251 > 100 µM | COLO 205 > 100 µM | UO-31 16.2 µM | SF-539 > 100 µM | OVCAR-4 > 100 µM | UACC-62 > 100 µM | Malme-3M > 100 µM

COC(=O)C(CC(=O)c1c[nH]c2ccccc12)c1c[nH]c2ccccc12 (stereo not given)
inactive: OVCAR-3 > 10 µM | NCI-H460 18.8 µM | CCRF-CEM 17.9 µM | HOP-62 21.5 µM | RPMI-8226 11.5 µM | HCC 2998 23 µM | CAKI-1 20 µM | U-251 20.8 µM | UO-31 18.2 µM | SF-539 19.3 µM | OVCAR-4 17.1 µM | UACC-62 > 10 µM | Malme-3M 19.1 µM

COC1[C@@H](OC(C)=O)[C@@H](NC(=O)C(Cl)(Cl)Cl)C(I)[C@@H](N2C(=O)c3ccccc3C2=O)[C@H]1OC (stereo not given in full)
inactive: HOP-92 47.5 µM | NCI-H460 > 100 µM | CCRF-CEM > 100 µM | HOP-62 > 100 µM | RPMI-8226 > 100 µM | SF-268 > 100 µM | U-251 > 100 µM | COLO 205 > 100 µM | SF-539 50.2 µM | OVCAR-4 72.3 µM | UACC-62 > 100 µM

CN(c1n[n+]2c(-c3ccccc3)csc2s1)c1n[n+]2c(-c3ccccc3)csc2s1
inactive: HOP-92 > 100 µM | OVCAR-3 > 100 µM | NCI-H460 > 100 µM | CCRF-CEM 68.9 µM | RPMI-8226 > 100 µM | HCC 2998 > 100 µM | SF-268 > 100 µM | COLO 205 46.7 µM | UO-31 > 100 µM | SF-539 > 100 µM | OVCAR-4 > 100 µM | UACC-62 > 100 µM | Malme-3M 26.3 µM
